From the kinase profiling compilation of Christmann-Franck et al. (2016)

Assays:
Assay in all cases: KINOMEscan competition binding
Conditions in all cases: compound 10.0 µM
FGFR2 (human) = FGFR2 (human) (UniProt P21802)
MKNK2 (human) = MKNK2 (human) (UniProt Q9HBH9)
CDC2L2 (human) = CDC2L2 (human) (UniProt Q9UQ88)
PDGFRB (human) = PDGFRB (human) (UniProt P09619)
RPS6KA3 KD1 (human) = RPS6KA3 KD1 (human) (UniProt P51812)
PTK6 (human) = PTK6 (human) (UniProt Q13882)
PIK3CB (human) = PIK3CB (human) (UniProt P42338)
Sequence of PIK3CB (human) (P42338 whole entry, looked up): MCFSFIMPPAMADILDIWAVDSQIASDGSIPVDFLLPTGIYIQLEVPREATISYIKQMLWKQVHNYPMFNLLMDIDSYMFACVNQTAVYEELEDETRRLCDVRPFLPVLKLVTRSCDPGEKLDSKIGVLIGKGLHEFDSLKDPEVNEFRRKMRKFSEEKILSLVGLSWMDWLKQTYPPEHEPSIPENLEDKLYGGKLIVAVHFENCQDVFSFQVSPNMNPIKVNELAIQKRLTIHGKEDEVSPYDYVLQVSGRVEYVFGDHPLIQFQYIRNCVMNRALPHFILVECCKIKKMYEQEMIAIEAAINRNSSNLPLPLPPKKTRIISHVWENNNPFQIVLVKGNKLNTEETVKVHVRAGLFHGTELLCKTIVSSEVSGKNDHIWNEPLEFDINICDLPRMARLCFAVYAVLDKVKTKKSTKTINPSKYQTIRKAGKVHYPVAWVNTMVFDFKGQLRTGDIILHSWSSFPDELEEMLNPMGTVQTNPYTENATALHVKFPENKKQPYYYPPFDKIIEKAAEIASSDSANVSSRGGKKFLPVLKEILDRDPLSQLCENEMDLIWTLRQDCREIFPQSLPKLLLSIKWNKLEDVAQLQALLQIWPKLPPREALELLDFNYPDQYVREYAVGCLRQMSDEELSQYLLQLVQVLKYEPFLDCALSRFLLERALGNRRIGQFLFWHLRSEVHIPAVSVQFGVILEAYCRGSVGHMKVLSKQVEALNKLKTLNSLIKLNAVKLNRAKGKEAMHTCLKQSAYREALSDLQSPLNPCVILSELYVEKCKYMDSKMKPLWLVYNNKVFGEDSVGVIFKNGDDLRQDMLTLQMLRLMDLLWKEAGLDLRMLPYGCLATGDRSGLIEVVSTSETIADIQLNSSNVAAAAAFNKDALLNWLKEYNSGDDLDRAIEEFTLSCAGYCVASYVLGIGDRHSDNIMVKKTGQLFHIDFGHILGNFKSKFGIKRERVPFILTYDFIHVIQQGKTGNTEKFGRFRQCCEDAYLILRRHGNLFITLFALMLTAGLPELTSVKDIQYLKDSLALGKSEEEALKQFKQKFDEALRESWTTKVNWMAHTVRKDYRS

FLT3 (human) = FLT3 (human) (UniProt P36888)
DAPK2 (human) = DAPK2 (human) (UniProt Q9UIK4)
Sequence of DAPK2 (human) (Q9UIK4 whole entry, looked up): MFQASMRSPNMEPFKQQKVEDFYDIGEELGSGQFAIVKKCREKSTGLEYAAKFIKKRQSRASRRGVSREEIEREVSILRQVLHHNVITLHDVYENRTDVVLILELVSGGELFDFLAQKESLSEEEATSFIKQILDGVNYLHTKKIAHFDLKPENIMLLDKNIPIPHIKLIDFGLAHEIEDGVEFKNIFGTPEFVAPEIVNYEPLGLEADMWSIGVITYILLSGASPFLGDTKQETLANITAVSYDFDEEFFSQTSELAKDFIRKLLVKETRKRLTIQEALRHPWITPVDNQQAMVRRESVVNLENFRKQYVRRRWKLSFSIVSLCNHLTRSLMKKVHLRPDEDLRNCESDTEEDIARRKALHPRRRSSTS

CDC42BPB (human) = CDC42BPB (human) (UniProt Q9Y5S2)
Sequence of CDC42BPB (human) (Q9Y5S2 whole entry, looked up): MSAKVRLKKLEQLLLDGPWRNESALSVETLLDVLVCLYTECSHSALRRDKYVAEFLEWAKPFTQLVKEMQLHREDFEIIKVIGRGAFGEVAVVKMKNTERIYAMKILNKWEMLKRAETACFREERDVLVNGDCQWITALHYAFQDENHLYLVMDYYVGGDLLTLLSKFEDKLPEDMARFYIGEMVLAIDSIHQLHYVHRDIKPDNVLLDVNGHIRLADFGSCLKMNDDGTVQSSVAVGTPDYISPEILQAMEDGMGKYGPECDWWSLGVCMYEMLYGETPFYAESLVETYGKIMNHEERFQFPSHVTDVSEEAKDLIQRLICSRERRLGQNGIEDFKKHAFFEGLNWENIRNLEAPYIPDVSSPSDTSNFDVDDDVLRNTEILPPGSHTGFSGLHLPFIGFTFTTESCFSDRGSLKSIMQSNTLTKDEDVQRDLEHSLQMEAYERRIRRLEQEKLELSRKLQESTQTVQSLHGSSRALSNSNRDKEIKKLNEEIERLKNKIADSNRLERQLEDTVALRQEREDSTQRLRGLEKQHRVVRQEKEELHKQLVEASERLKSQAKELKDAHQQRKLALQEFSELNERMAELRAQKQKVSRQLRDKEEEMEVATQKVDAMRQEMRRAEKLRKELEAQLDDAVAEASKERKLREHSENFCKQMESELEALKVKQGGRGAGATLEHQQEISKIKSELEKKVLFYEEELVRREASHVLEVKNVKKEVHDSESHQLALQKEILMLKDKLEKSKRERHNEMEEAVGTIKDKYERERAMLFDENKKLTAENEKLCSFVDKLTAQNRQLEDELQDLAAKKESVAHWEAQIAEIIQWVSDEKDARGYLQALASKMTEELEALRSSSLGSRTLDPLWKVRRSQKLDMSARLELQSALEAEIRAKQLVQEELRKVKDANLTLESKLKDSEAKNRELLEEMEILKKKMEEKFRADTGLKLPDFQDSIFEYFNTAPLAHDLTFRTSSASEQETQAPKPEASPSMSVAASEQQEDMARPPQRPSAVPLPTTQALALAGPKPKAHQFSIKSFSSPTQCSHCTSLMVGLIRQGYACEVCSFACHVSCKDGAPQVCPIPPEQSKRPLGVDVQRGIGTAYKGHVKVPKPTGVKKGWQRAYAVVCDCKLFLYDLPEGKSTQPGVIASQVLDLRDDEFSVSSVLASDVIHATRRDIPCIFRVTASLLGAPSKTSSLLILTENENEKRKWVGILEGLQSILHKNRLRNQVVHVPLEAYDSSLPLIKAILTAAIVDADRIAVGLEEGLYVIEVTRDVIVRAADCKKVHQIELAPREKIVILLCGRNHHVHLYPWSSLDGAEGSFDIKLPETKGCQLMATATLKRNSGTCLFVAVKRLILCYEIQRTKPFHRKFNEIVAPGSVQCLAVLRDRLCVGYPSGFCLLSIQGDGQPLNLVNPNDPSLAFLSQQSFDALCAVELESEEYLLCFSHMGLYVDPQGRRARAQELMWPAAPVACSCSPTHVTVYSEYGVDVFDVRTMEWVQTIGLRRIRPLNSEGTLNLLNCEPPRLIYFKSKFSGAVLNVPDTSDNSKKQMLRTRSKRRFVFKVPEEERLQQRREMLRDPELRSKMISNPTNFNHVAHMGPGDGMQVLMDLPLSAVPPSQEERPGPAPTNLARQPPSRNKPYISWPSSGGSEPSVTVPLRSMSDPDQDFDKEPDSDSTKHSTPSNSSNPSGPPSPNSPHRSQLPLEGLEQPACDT

[1] = biological target: JAK1 JH2 pseudokinase (human) (UniProt P23458)
IRAK3 (human) = IRAK3 (human) (UniProt Q9Y616)
PAK7 (human) = PAK7 (human) (UniProt Q9P286)
SYK (human) = SYK (human) (UniProt P43405)
CDKL3 (human) = CDKL3 (human) (UniProt Q8IVW4)
Sequence of CDKL3 (human) (Q8IVW4 whole entry, looked up): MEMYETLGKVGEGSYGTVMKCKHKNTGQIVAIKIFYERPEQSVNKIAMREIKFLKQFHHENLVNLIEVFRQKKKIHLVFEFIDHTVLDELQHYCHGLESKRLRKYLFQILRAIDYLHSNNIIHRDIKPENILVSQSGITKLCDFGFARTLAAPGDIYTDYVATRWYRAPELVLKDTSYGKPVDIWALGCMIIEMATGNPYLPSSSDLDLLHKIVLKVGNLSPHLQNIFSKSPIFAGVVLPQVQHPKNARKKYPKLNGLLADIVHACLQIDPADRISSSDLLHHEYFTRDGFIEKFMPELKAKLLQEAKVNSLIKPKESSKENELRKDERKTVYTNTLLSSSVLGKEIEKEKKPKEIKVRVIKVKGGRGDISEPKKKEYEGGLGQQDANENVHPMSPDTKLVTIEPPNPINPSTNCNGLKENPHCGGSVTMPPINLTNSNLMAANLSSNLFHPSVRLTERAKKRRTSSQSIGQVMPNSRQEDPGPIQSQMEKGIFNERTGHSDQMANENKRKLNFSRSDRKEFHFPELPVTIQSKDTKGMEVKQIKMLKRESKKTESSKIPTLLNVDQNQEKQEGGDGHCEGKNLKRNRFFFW

MAP3K2 (human) = MAP3K2 (human) (UniProt Q9Y2U5)
[2] = test system: FGFR3 (human), P22607 [G697C]
RIPK4 (human) = RIPK4 (human) (UniProt P57078)
PIM1 (human) = PIM1 (human) (UniProt P11309)
OXSR1 (human) = OXSR1 (human) (UniProt O95747)
TTK (human) = TTK (human) (UniProt P33981)
CSNK1D (human) = CSNK1D (human) (UniProt P48730)
DYRK2 (human) = DYRK2 (human) (UniProt Q92630)
MAP2K3 (human) = MAP2K3 (human) (UniProt P46734)
CDK8 (human) = CDK8 (human) (UniProt P49336)
FES (human) = FES (human) (UniProt P07332)
TNK1 (human) = TNK1 (human) (UniProt Q13470)
MST4 (human) = MST4 (human) (UniProt Q9P289)
RIOK2 (human) = RIOK2 (human) (UniProt Q9BVS4)
ACVR2B (human) = ACVR2B (human) (UniProt Q13705)
EPHB6 (human) = EPHB6 (human) (UniProt O15197)
CSNK1E (human) = CSNK1E (human) (UniProt P49674)
BMPR1A (human) = BMPR1A (human) (UniProt P36894)
Sequence of BMPR1A (human) (P36894 whole entry, looked up): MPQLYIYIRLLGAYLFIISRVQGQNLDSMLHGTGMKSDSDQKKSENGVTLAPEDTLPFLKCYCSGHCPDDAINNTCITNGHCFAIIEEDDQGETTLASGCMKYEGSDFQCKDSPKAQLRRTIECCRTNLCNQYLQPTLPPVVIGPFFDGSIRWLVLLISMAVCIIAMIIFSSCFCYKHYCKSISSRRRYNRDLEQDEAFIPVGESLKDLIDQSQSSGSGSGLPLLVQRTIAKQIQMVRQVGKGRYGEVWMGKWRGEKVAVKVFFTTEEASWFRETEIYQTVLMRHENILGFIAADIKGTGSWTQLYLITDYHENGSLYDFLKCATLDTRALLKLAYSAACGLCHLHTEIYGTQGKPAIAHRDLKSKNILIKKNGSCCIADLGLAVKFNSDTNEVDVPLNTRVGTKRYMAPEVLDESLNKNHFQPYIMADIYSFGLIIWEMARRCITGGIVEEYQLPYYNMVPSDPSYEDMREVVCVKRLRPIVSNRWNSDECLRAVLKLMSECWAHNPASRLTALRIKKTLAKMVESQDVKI

PRKACB (human) = PRKACB (human) (UniProt P22694)
CSNK1G3 (human) = CSNK1G3 (human) (UniProt Q9Y6M4)
MELK (human) = MELK (human) (UniProt Q14680)
CSNK1G1 (human) = CSNK1G1 (human) (UniProt Q9HCP0)
ERBB3 (human) = ERBB3 (human) (UniProt P21860)
PRKCD (human) = PRKCD (human) (UniProt Q05655)
CDK15 (human) = CDK15 (human) (UniProt Q96Q40)

Sequence of FGFR2 (human) (P21802 whole entry, looked up): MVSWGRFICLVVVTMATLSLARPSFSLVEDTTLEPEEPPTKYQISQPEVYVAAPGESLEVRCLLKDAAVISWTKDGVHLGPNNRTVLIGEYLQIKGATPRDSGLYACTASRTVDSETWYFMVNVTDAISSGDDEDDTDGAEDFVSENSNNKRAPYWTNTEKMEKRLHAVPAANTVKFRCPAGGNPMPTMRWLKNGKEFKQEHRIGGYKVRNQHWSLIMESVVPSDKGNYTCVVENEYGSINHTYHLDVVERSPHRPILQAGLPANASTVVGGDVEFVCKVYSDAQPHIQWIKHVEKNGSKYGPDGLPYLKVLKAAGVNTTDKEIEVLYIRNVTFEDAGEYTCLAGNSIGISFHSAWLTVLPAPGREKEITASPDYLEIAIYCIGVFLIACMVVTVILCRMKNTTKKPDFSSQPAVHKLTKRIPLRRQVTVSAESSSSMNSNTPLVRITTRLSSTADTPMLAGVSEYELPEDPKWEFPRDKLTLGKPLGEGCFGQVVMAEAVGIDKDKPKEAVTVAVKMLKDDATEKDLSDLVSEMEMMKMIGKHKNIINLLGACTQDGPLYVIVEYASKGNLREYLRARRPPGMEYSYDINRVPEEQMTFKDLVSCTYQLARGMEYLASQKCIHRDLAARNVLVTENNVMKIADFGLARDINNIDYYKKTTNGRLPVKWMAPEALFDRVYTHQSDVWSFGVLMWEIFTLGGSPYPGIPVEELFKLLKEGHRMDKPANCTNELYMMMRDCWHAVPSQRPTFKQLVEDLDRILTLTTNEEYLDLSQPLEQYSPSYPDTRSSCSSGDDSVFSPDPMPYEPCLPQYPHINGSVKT

| Structure (SMILES) | kinase still bound, per cent of control (FGFR2 (human)) [%] | kinase still bound, per cent of control (MKNK2 (human)) [%] | kinase still bound, per cent of control (CDC2L2 (human)) [%] | kinase still bound, per cent of control (PDGFRB (human)) [%] | kinase still bound, per cent of control (RPS6KA3 KD1 (human)) [%] | kinase still bound, per cent of control (PTK6 (human)) [%] | kinase still bound, per cent of control (PIK3CB (human)) [%] | kinase still bound, per cent of control (FLT3 (human)) [%] | kinase still bound, per cent of control (DAPK2 (human)) [%] | kinase still bound, per cent of control (CDC42BPB (human)) [%] | kinase still bound, per cent of control [1] [%] | kinase still bound, per cent of control (IRAK3 (human)) [%] | kinase still bound, per cent of control (PAK7 (human)) [%] | kinase still bound, per cent of control (SYK (human)) [%] | kinase still bound, per cent of control (CDKL3 (human)) [%] | kinase still bound, per cent of control (MAP3K2 (human)) [%] | kinase still bound, per cent of control [2] [%] | kinase still bound, per cent of control (RIPK4 (human)) [%] | kinase still bound, per cent of control (PIM1 (human)) [%] | kinase still bound, per cent of control (OXSR1 (human)) [%] | other results |
| --- | --- | --- | --- | --- | --- | --- | --- | --- | --- | --- | --- | --- | --- | --- | --- | --- | --- | --- | --- | --- | --- |
| Cc1cn(-c2cc(C(=O)Nc3ccc(C)c(NC(=O)c4ccno4)c3)cc(C(F)(F)F)c2)cn1 | 100 | 100 | 100 | 0 | 100 | 24 | 100 | 100 | 100 | 100 | 100 | 100 | 100 | 100 | 100 | 100 | 100 | 100 | 100 | 100 | kinase still bound, per cent of control (TTK (human)): 100%; kinase still bound, per cent of control (CSNK1D (human)): 100%; kinase still bound, per cent of control (DYRK2 (human)): 100%; kinase still bound, per cent of control (MAP2K3 (human)): 100%; kinase still bound, per cent of control (CDK8 (human)): 100%; kinase still bound, per cent of control (FES (human)): 100%; kinase still bound, per cent of control (TNK1 (human)): 100%; kinase still bound, per cent of control (MST4 (human)): 100%; kinase still bound, per cent of control (RIOK2 (human)): 100%; kinase still bound, per cent of control (ACVR2B (human)): 100%; kinase still bound, per cent of control (EPHB6 (human)): 100%; kinase still bound, per cent of control (CSNK1E (human)): 100%; kinase still bound, per cent of control (BMPR1A (human)): 100%; kinase still bound, per cent of control (PRKACB (human)): 100%; kinase still bound, per cent of control (CSNK1G3 (human)): 100%; kinase still bound, per cent of control (MELK (human)): 100%; kinase still bound, per cent of control (CSNK1G1 (human)): 100%; kinase still bound, per cent of control (ERBB3 (human)): 100%; kinase still bound, per cent of control (PRKCD (human)): 100%; kinase still bound, per cent of control (CDK15 (human)): 100% |
| N#Cc1cc(-c2ccnc(Nc3ccc(-n4cnc(-c5cccnc5)n4)cc3)n2)cc(N2CCOCC2)c1 | 91 | 34 | 25 | 8.2 | 69 | 100 | 100 | 18 | 96 | 61 | 0.95 | 12 | 21 | 25 | 45 | 31 | 90 | 53 | 78 | 96 | kinase still bound, per cent of control (TTK (human)): 73%; kinase still bound, per cent of control (CSNK1D (human)): 86%; kinase still bound, per cent of control (DYRK2 (human)): 39%; kinase still bound, per cent of control (MAP2K3 (human)): 18%; kinase still bound, per cent of control (CDK8 (human)): 80%; kinase still bound, per cent of control (FES (human)): 91%; kinase still bound, per cent of control (TNK1 (human)): 25%; kinase still bound, per cent of control (MST4 (human)): 62%; kinase still bound, per cent of control (RIOK2 (human)): 1.4%; kinase still bound, per cent of control (ACVR2B (human)): 49%; kinase still bound, per cent of control (EPHB6 (human)): 14%; kinase still bound, per cent of control (CSNK1E (human)): 95%; kinase still bound, per cent of control (BMPR1A (human)): 28%; kinase still bound, per cent of control (PRKACB (human)): 100%; kinase still bound, per cent of control (CSNK1G3 (human)): 100%; kinase still bound, per cent of control (MELK (human)): 100%; kinase still bound, per cent of control (CSNK1G1 (human)): 92%; kinase still bound, per cent of control (ERBB3 (human)): 69%; kinase still bound, per cent of control (PRKCD (human)): 65%; kinase still bound, per cent of control (CDK15 (human)): 55% |
